Measured values taken from paper PMC6270420, “Antibacterial Activity of Salicylanilide 4-(Trifluoromethyl)benzoates” (Molecules, 2013).
Values after ≈ are worked out from the molar mass of the structure shown. Like-named read-outs stand apart in the source and are kept apart here.

Experiments:
[1] = biological target: T1, mycobacterial isocitrate lyase (ICL1, Rv0467) (Mycobacterium tuberculosis, UniProt P9WKK7); assay: Isocitrate lyase inhibition assay (ICL1); format: biochemical, Mycobacterium tuberculosis H37Rv; details: 10 μmol/L; read-out: % ICL inhibition at 10 μmol/L (± standard deviation)
T1 construct: His tag (from pET-28b(+)); made in house; host or cells: E. coli BL21(DE3), pET-28b(+) plasmid
T1 sequence (P9WKK7 1-428): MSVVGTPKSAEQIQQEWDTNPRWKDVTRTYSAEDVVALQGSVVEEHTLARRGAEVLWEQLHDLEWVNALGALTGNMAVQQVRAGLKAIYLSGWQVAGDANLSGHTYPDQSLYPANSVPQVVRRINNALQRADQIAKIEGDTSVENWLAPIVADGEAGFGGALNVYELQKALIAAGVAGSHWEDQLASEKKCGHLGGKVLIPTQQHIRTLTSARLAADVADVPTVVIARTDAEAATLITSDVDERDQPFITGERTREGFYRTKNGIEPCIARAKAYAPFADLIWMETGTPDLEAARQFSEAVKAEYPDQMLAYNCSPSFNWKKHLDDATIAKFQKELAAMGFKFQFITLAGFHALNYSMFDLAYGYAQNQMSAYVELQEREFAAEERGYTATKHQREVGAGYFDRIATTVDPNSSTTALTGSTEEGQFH

[2] = test system: Mycobacterium avium 330/88; assay: Antimycobacterial MIC micromethod; format: cell-based
[3] = test system: M. kansasii 6509/96 (clinically isolated strain); assay: Antimycobacterial MIC micromethod; format: cell-based; details: Mycobacterium kansasii, read-out: MIC M. kansasii 6509/96
Mtb. 234/2005 = assay: microbe, parasite or virus in culture; format: cell-based; details: Mycobacterium tuberculosis, read-out: MIC Mtb. 234/2005
[4] = test system: Mycobacterium tuberculosis 331/88 (H37Rv); assay: Antimycobacterial MIC micromethod, Šula's medium; format: cell-based; details: read-out: MIC Mtb. 331/88
HepG2 cells = assay: Cytotoxicity evaluation (CellTiter 96 MTS); format: cell-based, human; details: Homo sapiens, HepG2, 24 h, read-out: IC50 HepG2
Description: Seven esters and their parent salicylanilides with the most robust antimicrobial activity were tested for cytotoxicity in the human hepatocellular liver carcinoma cell line HepG2 (passages 21–24; ECACC, Salisbury, UK) using a standard colorimetric method measuring a tetrazolium salt reduction (CellTiter(R) 96 AQueous One Solution Assay, Promega G3580, Madison, WI, USA).
The cells were routinely cultured in Minimum Essentials Eagle Medium (Sigma-Aldrich, Darmstadt, Germany) supplemented with 10% foetal bovine serum (PAA; Biotech, Prague, Czech Republic), 1% of L-glutamine solution (Sigma-Aldrich), and non-essential amino acids solution (Sigma-Aldrich) in a humidified atmosphere containing 5% CO2 at 37 °C. For subculturing, the cells were harvested after trypsin/EDTA (Sigma-Aldrich) treatment at 37 °C. The cells treated with the tested substances were used as experimental groups. Untreated HepG2 cells were used as control groups.
The cells were seeded in density 1 × 10^4 cells per well in a 96-well plate with microscopic control. Next day, the cells were treated with each of the tested substances. […] The most of the tested compounds were prepared in incubation concentrations of 0.01–20 µM in triplicates. 4-(Trifluoromethyl)benzoic acid was applied in the concentrations of 10–4,000 µM in triplicates. The following types of controls were included: determination of 100% viability and 0% viability (the cells treated by 10% DMSO), no cell control and vehiculum controls. These checking samples were prepared in triplicates.
The treated cells were incubated together with controls at 37 °C for 24 h in 5% CO2 atmosphere. After this time reagent from the kit CellTiter 96 AQueous One Solution Cell Proliferation Assay was added. The CellTiter 96 assay is based on the reduction of tetrazolium salt MTS [3-(4,5-dimethylthiazol-2-yl)-5-(3-carboxymethoxyphenyl)-2-(4-sulfophenyl)-2H-tetrazolium] to water-soluble formazan dye by metabolically active cells. The reduction of the reagent is attributed to availability of NADH or NADPH. The decline in levels of these metabolically important compounds in the cell causes that the production of formazan is reduced. The tested plate was incubated for 2 h at 37 °C and 5% CO2 and after this time, the absorbance was recorded at 490 nm using a 96-well plate reader (TECAN, Infinite M200, Grödig, Austria).
The results were expressed as inhibitory concentration which is necessary to inhibit cell viability to 50% from the maximal (control) viability (IC50). A standard toxicological parameter IC50 was calculated in each of the tested substances using GraphPad Prism software (version 5.02; GraphPad Software Inc., San Diego, CA, USA).

Mtb. 53/2009 = assay: microbe, parasite or virus in culture; format: cell-based; details: Mycobacterium tuberculosis, read-out: MIC Mtb. 53/2009
Mtb. 7357/1988 = assay: microbe, parasite or virus in culture; format: cell-based; details: Mycobacterium tuberculosis, read-out: MIC Mtb. 7357/1988
[5] = test system: Mycobacterium kansasii 235/80; assay: Antimycobacterial MIC micromethod; format: cell-based; details: read-out: MIC M. kansasii 235/80
Mtb. 9449/2006 = assay: microbe, parasite or virus in culture; format: cell-based; details: Mycobacterium tuberculosis, read-out: MIC Mtb. 9449/2006
Mtb. Praha 131 (XDR-TB) = assay: microbe, parasite or virus in culture; format: cell-based; details: Mycobacterium tuberculosis, read-out: MIC Mtb. Praha 131 (XDR-TB)
Mtb. Praha 1 = assay: microbe, parasite or virus in culture; format: cell-based; details: Mycobacterium tuberculosis, read-out: MIC Mtb. Praha 1

Compound: O=C(Oc1cc(Cl)ccc1C(=O)Nc1ccc(Cl)c(Cl)c1)c1ccc(C(F)(F)F)cc1 [1f]
- inhibition at 10 µM [1]: 17 ± 1.6%
- MIC ([2]; 330/88, 336 h, 14 d): 2 µM (≈ 0.977 µg/mL)
- MIC ([2]; 330/88, 504 h, 21 d): 8 µM (≈ 3.91 µg/mL)
- MIC ([3]; 168 h, 7 d): 1 µM (≈ 0.489 µg/mL)
- MIC ([3]; 336 h, 14 d): 2 µM (≈ 0.977 µg/mL)
- MIC ([3]; 504 h, 21 d): 4 µM (≈ 1.95 µg/mL)
- MIC (Mtb. 234/2005; 336 h): 1 µM (≈ 0.489 µg/mL)
- MIC (Mtb. 234/2005; 504 h): 2 µM (≈ 0.977 µg/mL)
- MIC ([4]; 336 h, 14 d): 1 µM (≈ 0.489 µg/mL)
- MIC ([4]; 504 h, 21 d): 2 µM (≈ 0.977 µg/mL)
- IC50 (HepG2 cells): 4.46 µM
- MIC (Mtb. 53/2009; 336 h): 2 µM (≈ 0.977 µg/mL)
- MIC (Mtb. 53/2009; 504 h): 2 µM (≈ 0.977 µg/mL)
- MIC (Mtb. 7357/1988; 336 h): 2 µM (≈ 0.977 µg/mL)
- MIC (Mtb. 7357/1988; 504 h): 2 µM (≈ 0.977 µg/mL)
- MIC ([5]; 235/80, 168 h, 7 d): 1 µM (≈ 0.489 µg/mL)
- MIC ([5]; 235/80, 336 h, 14 d): 2 µM (≈ 0.977 µg/mL)
- MIC ([5]; 235/80, 504 h, 21 d): 4 µM (≈ 1.95 µg/mL)
- MIC (Mtb. 9449/2006; 336 h): 2 µM (≈ 0.977 µg/mL)
- MIC (Mtb. 9449/2006; 504 h): 2 µM (≈ 0.977 µg/mL)
- MIC (Mtb. Praha 131 (XDR-TB); 336 h): 1 µM (≈ 0.489 µg/mL)
- MIC (Mtb. Praha 131 (XDR-TB); 504 h): 2 µM (≈ 0.977 µg/mL)
- MIC (Mtb. Praha 1; 336 h): 1 µM (≈ 0.489 µg/mL)
- MIC (Mtb. Praha 1; 504 h): 2 µM (≈ 0.977 µg/mL)

Compound: O=C(Oc1ccc(Cl)cc1C(=O)Nc1cccc(Br)c1)c1ccc(C(F)(F)F)cc1 [1g]
- inhibition at 10 µM [1]: ≥ 20%
- MIC ([2]; 330/88, 336 h, 14 d): 2 µM (≈ 0.997 µg/mL)
- MIC ([2]; 330/88, 504 h, 21 d): 8 µM (≈ 3.99 µg/mL)
- MIC ([3]; 168 h, 7 d): 1 µM (≈ 0.499 µg/mL)
- MIC ([3]; 336 h, 14 d): 4 µM (≈ 1.99 µg/mL)
- MIC ([3]; 504 h, 21 d): 4 µM (≈ 1.99 µg/mL)
- MIC (Mtb. 234/2005; 336 h): 1 µM (≈ 0.499 µg/mL)
- MIC (Mtb. 234/2005; 504 h): 2 µM (≈ 0.997 µg/mL)
- MIC ([4]; 336 h, 14 d): 1 µM (≈ 0.499 µg/mL)
- MIC ([4]; 504 h, 21 d): 2 µM (≈ 0.997 µg/mL)
- IC50 (HepG2 cells): 2.63 µM
- MIC (Mtb. 53/2009; 336 h): 2 µM (≈ 0.997 µg/mL)
- MIC (Mtb. 53/2009; 504 h): 2 µM (≈ 0.997 µg/mL)
- MIC (Mtb. 7357/1988; 336 h): 2 µM (≈ 0.997 µg/mL)
- MIC (Mtb. 7357/1988; 504 h): 2 µM (≈ 0.997 µg/mL)
- MIC ([5]; 235/80, 168 h, 7 d): 2 µM (≈ 0.997 µg/mL)
- MIC ([5]; 235/80, 336 h, 14 d): 4 µM (≈ 1.99 µg/mL)
- MIC ([5]; 235/80, 504 h, 21 d): 4 µM (≈ 1.99 µg/mL)
- MIC (Mtb. 9449/2006; 336 h): 1 µM (≈ 0.499 µg/mL)
- MIC (Mtb. 9449/2006; 504 h): 2 µM (≈ 0.997 µg/mL)
- MIC (Mtb. Praha 131 (XDR-TB); 336 h): 1 µM (≈ 0.499 µg/mL)
- MIC (Mtb. Praha 131 (XDR-TB); 504 h): 2 µM (≈ 0.997 µg/mL)
- MIC (Mtb. Praha 1; 336 h): 1 µM (≈ 0.499 µg/mL)
- MIC (Mtb. Praha 1; 504 h): 2 µM (≈ 0.997 µg/mL)
